Results published in article PMC5733478, “A Non-imaging High Throughput Approach to Chemical Library Screening at the Unmodified Adenosine-A3 Receptor in Living Cells” (Frontiers in Pharmacology, 2017).
Where a name gives a salt, the structure may show the parent alone. Read-outs that look alike come from different tables or passages of the source. Where a SMILES comes first, the peptide text is derived from it. The star is where a group is joined. Cbz = O=C(OCc1ccccc1)*

Biological target: T1, human A3AR (Homo sapiens, UniProt P0DMS8)
T1 construct: expressed in transfected cells
T1 sequence (P0DMS8 1-318): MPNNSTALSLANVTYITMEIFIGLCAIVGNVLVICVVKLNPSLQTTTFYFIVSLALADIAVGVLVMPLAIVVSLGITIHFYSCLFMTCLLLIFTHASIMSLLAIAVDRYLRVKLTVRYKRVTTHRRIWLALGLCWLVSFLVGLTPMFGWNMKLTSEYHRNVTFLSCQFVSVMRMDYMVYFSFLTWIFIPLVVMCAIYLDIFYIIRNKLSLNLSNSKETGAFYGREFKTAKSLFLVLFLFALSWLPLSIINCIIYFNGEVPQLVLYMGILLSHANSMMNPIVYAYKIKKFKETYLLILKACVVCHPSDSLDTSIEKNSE
Assay: LOPAC library primary screen: single concentration (10 μM) inhibition of 25 nM CA200645 binding, PHERAstar FS

Row | Molecule | % 25 nM CA200645 binding | also measured
1 | C=CCc1cccc(/C=N/NC(=O)CN2CCN(Cc3ccccc3)CC2)c1O [PAC-1] | 105.3 ± 4.5% | –
2 | O=C(O)CCc1nc(-c2ccccc2)c(-c2ccccc2)o1 [Oxaprozin] | 97.6 ± 6.3% | –
3 | NC[C@@H]1O[C@H](O[C@H]2[C@@H](O)[C@H](O[C@@H]3[C@@H](O)[C@H](N)C[C@H](N)[C@H]3O[C@H]3O[C@H](CO)[C@@H](O)[C@H](O)[C@H]3N)O[C@@H]2CO)[C@H](N)[C@@H](O)[C@@H]1O [Paromomycin sulfate] | 106.3 ± 7.8% | –
4 | Clc1cnc(Oc2ccc(Oc3ncc(Cl)cc3Cl)cc2)c(Cl)c1 [TCPOBOP] | 93.7 ± 8.4% | –
5 | CC(C)(C)c1ccc(/C=C/C(=O)Nc2ccc3c(c2)OCCO3)cc1 [AMG 9810] | 59.0 ± 6.4% | –
6 | Oc1cc(-c2ccccc2)nc2nc(Cl)ccc12 | 77.8 ± 8.8% | –
7 | C[C@@H](O)[C@H]1C(=O)N2C(C(=O)O)=C(SCCN=CN)C[C@H]12 [Imipenem monohydrate] | 96.8 ± 2.2% | –
8 | O.c1cnc2c(c1)ccc1cccnc12 [1,10-Phenanthroline monohydrate] | 90.7 ± 13.0% | –
9 | CN1C(=O)CCS(=O)(=O)C1c1ccc(Cl)cc1 (stereo not shown) [Chlormezanone] | 101.4 ± 10.9% | –
10 | CC(=O)O[C@H]1C[C@@]2(C)[C@@H](C[C@@H](O)[C@H]3[C@@]4(C)CC[C@@H](O)[C@@H](C)[C@@H]4CC[C@@]32C)/C1=C(\CCC=C(C)C)C(=O)[O-].[Na+] [Fusidic acid sodium] | 93.0 ± 9.1% | –
11 | O=C(O)CCc1ccc(NCc2cccc(Oc3ccccc3)c2)cc1 [GW9508] | 94.4 ± 0.8% | –
12 | CCC(=O)N1CCN(C(=O)c2ccccc2)CC1 [DM 235] | 105.1 ± 10.7% | –
13 | CCN(CC)CCNC(=O)c1cc(Cl)c(N)cc1OC.Cl [Metoclopramide hydrochloride] | 106.5 ± 2.9% | –
14 | NC(Cc1ccc(Cl)cc1)C(=O)O (racemic) [(±)-p-Chlorophenylalanine] | 94.9 ± 9.4% | –
15 | CC(C)[C@H](NC(=O)OCc1ccccc1)C(=O)N[C@H](C=O)Cc1ccccc1 [MDL 28170] (Cbz-Val-Phe-aldehyde) | 96.0 ± 2.8% | –
16 | C[N+](C)(C)CC(=O)O [Betaine hydrochloride] | 78.7 ± 15.6% | –
17 | CN(C)[C@@H]1C(O)=C(C(N)=O)C(=O)[C@@]2(O)C(O)=C3C(=O)c4c(O)ccc(Cl)c4[C@@H](O)[C@H]3C[C@@H]12 [Demeclocycline hydrochloride] | 98.1 ± 10.5% | –
18 | COC(=O)C(N)Cc1ccc(Cl)cc1.Cl (racemic) | 95.7 ± 6.7% | –
19 | O=c1cc(-c2ccc(O)cc2)oc2cc(O)cc(O)c12 [Apigenin] | 41.8 ± 13.4% | –
20 | Cl.Fc1ccc(C(OCCCc2c[nH]cn2)c2ccc(F)cc2)cc1 | 99.1 ± 1.1% | –
21 | N[C@@H](Cc1ccc(O)c(O)c1)C(=O)O [L-3,4-Dihydroxyphenylalanine] | 99.1 ± 9.5% | –
22 | MDL 26,630 trihydrochloride | 124.5 ± 16.5% | –
23 | NC(=O)c1cc[n+](CC2=C(C(=O)[O-])N3C(=O)[C@@H](NC(=O)C(c4ccccc4)S(=O)(=O)[O-])[C@H]3SC2)cc1.O.[Na+] (stereo partly shown) [Cefsulodin sodium salt hydrate] | 100.8 ± 6.6% | –

Row | Molecule | % 25 nM CA200645 binding | also measured
24 | Nc1ccc(CCNc2ncnc3c2ncn3[C@@H]2O[C@H](CO)[C@@H](O)[C@H]2O)cc1 [N6-2-(4-Aminophenyl)ethyladenosine] | 41.0 ± 7.1% | –
25 | 17alpha-hydroxyprogesterone | 104.8 ± 10.6% | –
26 | CCn1nc(C(=O)O)c(=O)c2cc3c(cc21)OCO3 [Cinoxacin] | 96.9 ± 2.7% | –
27 | N[C@@H](CS(=O)O)C(=O)O [L-Cysteinesulfinic Acid] | 83.6 ± 21.3% | –
28 | O=C(c1ccc(OCCN2CCCCC2)cc1)c1c(-c2ccc(O)cc2)sc2cc(O)ccc12 [Raloxifene hydrochloride] | 90.8 ± 14.0% | –
29 | CC(C)(NS(=O)(=O)c1ccc(Oc2ccc(F)cc2)cc1)C(=O)NO [CP-471474] | 98.7 ± 17.5% | –
30 | C[N+](C)(C)CCCCCC[N+](C)(C)C [Hexamethonium bromide] | 99.4 ± 1.1% | –
31 | c1ccc(C2CN3CCSC3=N2)cc1 (stereo not shown) [Tetramisole hydrochloride] | 95.5 ± 22.8% | –
32 | Cc1cc([C@@H]2CCCN2C)on1.Cl [ABT-418 hydrochloride] | 101.9 ± 4.7% | –
33 | Br.CCCN1CCC2c3cc(O)ccc3CCC21 (racemic) [cis(+/-)-8-OH-PBZI hydrobromide] | 98.1 ± 5.1% | –
34 | Br.COc1ccccc1N1CCN(CCCCN2C(=O)c3ccccc3C2=O)CC1 [NAN-190 hydrobromide] | 91.1 ± 29.0% | –
35 | Nc1ccn([C@@H]2O[C@H](CO)[C@@H](O)C2(F)F)c(=O)n1 [Gemcitabine hydrochloride] | 106.0 ± 4.9% | –
36 | (+)-Catechin Hydrate | 94.3 ± 10.9% | –
37 | CCCOC(=O)c1c(-c2ccccc2)nc(CC)c(C(=O)SCC)c1CCC [MRS 1523, reference compound] | 57.3 ± 10.9% | % Total CA200645 binding (% of 25 nM CA200645 binding in the presence of 10 μM compound, LOPAC full screen, A3AR CHO cells): 58.3 ± 11.4%
38 | Cn1c(=O)c2[nH]cnc2n(C)c1=O.Cn1c(=O)c2[nH]cnc2n(C)c1=O.NCCN [Aminophylline ethylenediamine] | 89.2 ± 8.4% | –
39 | CC(=O)NBr [N-Bromoacetamide] | 97.9 ± 5.0% | –
40 | NC(Cc1cc(O)c(O)cc1O)C(=O)O (racemic) [6-Hydroxy-DL-DOPA] | 69.7 ± 9.9% | –
41 | Cc1cc2c(C(C)C)c(O)c(O)c(C=O)c2c(O)c1-c1c(C)cc2c(C(C)C)c(O)c(O)c(C=O)c2c1O [Gossypol] | 54.1 ± 12.3% | –
42 | c1ccc2c(CC3=NCCN3)cccc2c1 [Naphazoline hydrochloride] | 105.3 ± 13.5% | –
43 | Oc1ccc(C2CNCCc3c2cc(O)c(O)c3Cl)cc1 (stereo not shown) [Fenoldopam bromide] | 90.6 ± 5.5% | –
44 | Cc1cn[nH]c1.Cl [4-Methylpyrazole hydrochloride] | 102.3 ± 3.8% | –
45 | C[C@H](Cc1ccc(OCC(=O)[O-])cc1)NC[C@H](O)c1cccc(Cl)c1.[Na+] [BRL 37344 sodium] | 98.2 ± 9.4% | –
46 | Cl.NC[C@@H]1O[C@H](c2ccccc2)Cc2c1ccc(O)c2O [A-68930 hydrochloride] | 95.6 ± 9.3% | –

Row | Molecule | % 25 nM CA200645 binding | also measured
47 | CN/C(=N/CCSCc1nc[nH]c1C)NC#N [Cimetidine] | 94.0 ± 4.0% | –
48 | N[C@H](C(=O)O)[C@H]1C[C@@H]1C(=O)O | 107.7 ± 15.6% | –
49 | CC[C@H](NC(=O)c1c(C)c(-c2ccccc2)nc2ccccc12)c1ccccc1 [SB 222200] | 76.8 ± 5.5% | –
50 | CNc1cc(NS(=O)(=O)c2ccc(N)cc2)nc(NC)n1.Cl.Cl [Ro 04-6790 dihydrochloride] | 82.1 ± 15.5% | –
51 | CCCCCCCCCC[Si](C)(C)CCC(=O)NC(Cc1ccc(C)cc1)c1ccccc1 (stereo not shown) [Sandoz 58-035] | 99.6 ± 12.7% | –
52 | CC#CCOC(=O)c1c(C)nc2sc3c(c2c1N)CCC(O)C3 (stereo not shown) [SB 205384] | 95.1 ± 6.2% | –
53 | CCCN1CCC[C@H](c2cccc(O)c2)C1.Cl [R(+)-3PPP hydrochloride] | 88.4 ± 12.1% | –
54 | CS(=O)(=O)O.Cn1cc(C(F)(F)F)nc1-c1ccc(OCC(O)CNCCOc2ccc(O)c(C(N)=O)c2)cc1 (stereo not shown) [CGP 20712A methanesulfonate] | 106.4 ± 13.7% | –
55 | CC(=N)NCCCC[C@H](N)C(=O)O.Cl [L-N6-(1-Iminoethyl)lysine hydrochloride] | 96.4 ± 1.7% | –
56 | CCNc1nc2c(ncn2[C@H]2C[C@H](O)[C@@H](CO)O2)c(=O)[nH]1 [N2-Ethyl-2'-deoxyguanosine] | 108.7 ± 6.3% | –
57 | COc1ccc2[nH]cc(CCNC(C)=O)c2c1 [Melatonin] | 106.6 ± 11.6% | –
58 | O=C(O)CNC(=O)C(CS)Cc1ccccc1 (racemic) [DL-Thiorphan] | – | % 25 nM CA200645 binding (% of control wells (1% DMSO and 25 nM CA200645), compounds at 10 µM, whole live cells expressing the A3AR, mean ± SD, three experiments in duplicate): 100.0 ± 12.5%
59 | COc1cc2nc(N3CCN(C(=O)c4ccco4)CC3)nc(N)c2cc1OC [Prazosin hydrochloride] | 109.3 ± 23.7% | –
60 | NC/C=C\C(=O)O [cis-4-Aminocrotonic acid] | 103.0 ± 10.1% | –
61 | CC(C)N(CCC(=O)c1ccc2ccccc2c1)Cc1ccccc1.Cl [ZM 39923 hydrochloride] | 115.5 ± 23.0% | –
62 | COC(=O)c1c(C)[nH]c(C)c1C(=O)c1ccccc1Cc1ccccc1 [FPL 64176] | 74.2 ± 6.7% | –
63 | CCCCNc1ccc(C(=O)OCCN(C)C)cc1 [Tetracaine hydrochloride] | 85.8 ± 26.7% | –
64 | CCN1CCc2nc(N)oc2CC1.Cl.Cl [B-HT 933 dihydrochloride] | 90.5 ± 9.0% | –
65 | Oc1ccc2c3c1O[C@H]1c4oc5ccccc5c4C[C@@]4(O)[C@@H](C2)N(CC2CC2)CC[C@]314 [Naltriben methanesulfonate] | 106.9 ± 8.0% | –
66 | O=C(O)C1CN(CCCP(=O)(O)O)CCN1 (racemic) [(±)-CPP] | 97.2 ± 1.5% | –
67 | COC1(C2=NCCN2)COc2ccccc2O1.Cl (stereo not shown) [RX 821002 hydrochloride] | 101.0 ± 17.5% | –
68 | C#C[C@]1(O)CC[C@H]2[C@@H]3CCC4=Cc5nc6nc7ccccc7n6cc5C[C@]4(C)[C@H]3CC[C@@]21C [WIN 62,577] | 67.3 ± 5.6% | –
69 | COc1cc(C(O)CO)ccc1OS(=O)(=O)[O-].[K+] (stereo not shown) [MHPG sulfate potassium] | 102.8 ± 6.8% | –
